Test [1] has as its target T1, Corticotropin-releasing factor receptor 1 (Rattus norvegicus) (UniProt P35353).
T1 sequence (whole entry): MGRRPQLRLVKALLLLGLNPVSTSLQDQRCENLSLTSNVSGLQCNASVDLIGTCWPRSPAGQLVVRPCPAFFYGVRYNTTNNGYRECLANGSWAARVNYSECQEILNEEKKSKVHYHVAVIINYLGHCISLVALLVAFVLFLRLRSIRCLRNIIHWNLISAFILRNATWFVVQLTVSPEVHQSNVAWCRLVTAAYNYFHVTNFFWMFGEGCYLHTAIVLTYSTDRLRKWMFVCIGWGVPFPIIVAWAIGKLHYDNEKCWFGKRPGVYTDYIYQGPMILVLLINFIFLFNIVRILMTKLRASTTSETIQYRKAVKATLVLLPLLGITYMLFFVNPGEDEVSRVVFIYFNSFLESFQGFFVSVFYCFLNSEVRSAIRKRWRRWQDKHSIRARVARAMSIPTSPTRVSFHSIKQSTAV
The test can be described thus: Relative antagonistic potency in vitro measuring alteration of CRF-induced release of ACTH by rat anterior pituitary cells in culture. To be noted: Pituitary gland cell. It counts as functional, cell-based.

The target of test [2] is T1, Corticotropin-releasing factor receptor 1 (Rattus norvegicus). Description: Intrinsic activity in ACTH release assay as percent CRF response. It counts as functional.

Activity and Intrinsic activity data for four molecules are collected here from ChEMBL document CHEMBL1127508, “Conformationally restricted competitive antagonists of human/rat corticotropin-releasing factor” (J Med Chem, 1994).

Some results are limits rather than exact numbers.

For the molecule `CCCC[C@H](NC(=O)[C@@H]1CCC(=O)NCCCC[C@H](NC(=O)[C@H](CCCN=C(N)N)NC(=O)[C@H](CC(C)C)NC(=O)[C@H](CC(C)C)NC(=O)[C@H](Cc2c[nH]cn2)NC(=O)[C@H](N)Cc2ccccc2)C(=O)N[C@@H](C(C)C)C(=O)N[C@@H](CC(C)C)C(=O)N1)C(=O)N[C@@H](C)C(=O)N[C@@H](CCCN=C(N)N)C(=O)N[C@@H](C)C(=O)N[C@@H](CCC(=O)O)C(=O)N[C@@H](CCC(N)=O)C(=O)N[C@@H](CC(C)C)C(=O)N[C@@H](C)C(=O)N[C@@H](CCC(N)=O)C(=O)N[C@@H](CCC(N)=O)C(=O)N[C@@H](C)C(=O)N[C@@H](Cc1c[nH]cn1)C(=O)N[C@@H](CO)C(=O)N[C@@H](CC(N)=O)C(=O)N[C@@H](CCCN=C(N)N)C(=O)N[C@@H](CCCCN)C(=O)N[C@@H](CC(C)C)C(=O)N[C@@H](CCCC)C(=O)N[C@@H](CCC(=O)O)C(=O)N[C@H](C(=O)N[C@H](C(=O)C(N)=O)[C@@H](C)CC)[C@@H](C)CC`, the Activity in test [1] was 0.02. Further, the Intrinsic activity in test [2] was determined as 3.
In test [1], `CCCC[C@H](NC(=O)[C@H](CC(C)C)NC(=O)[C@H](CCCCN)NC(=O)[C@H](CCCN=C(N)N)NC(=O)[C@H](CC(N)=O)NC(=O)[C@H](CO)NC(=O)[C@H](Cc1c[nH]cn1)NC(=O)[C@H](C)NC(=O)[C@H](CCC(N)=O)NC(=O)[C@H](CCC(N)=O)NC(=O)[C@H](C)NC(=O)[C@H](CC(C)C)NC(=O)[C@H](CCC(N)=O)NC(=O)[C@H](CCC(=O)O)NC(=O)[C@H](C)NC(=O)[C@H](CCCN=C(N)N)NC(=O)[C@H](C)NC(=O)[C@H](CCCC)NC(=O)[C@H]1CCC(=O)NCCCC[C@H](NC(=O)[C@H](CCCN=C(N)N)NC(=O)[C@H](CC(C)C)NC(=O)[C@H](CC(C)C)NC(=O)[C@H](Cc2c[nH]cn2)NC(=O)[C@H](N)Cc2ccccc2)C(=O)N[C@@H](C(C)C)C(=O)N[C@@H](CC(C)C)C(=O)N1)C(=O)N[C@@H](CCC(=O)O)C(=O)N[C@H](C(=O)N[C@H](C(=O)C(N)=O)[C@@H](C)CC)[C@@H](C)CC` gave an Activity of less than 0.001. Besides, in test [2], the Intrinsic activity is 23.
Turning to `CCCC[C@H](NC(=O)[C@H](CC(C)C)NC(=O)[C@H](CCCCN)NC(=O)[C@H](CCCN=C(N)N)NC(=O)[C@H](CC(N)=O)NC(=O)[C@H](CO)NC(=O)[C@H](Cc1c[nH]cn1)NC(=O)[C@H](C)NC(=O)[C@H](CCC(N)=O)NC(=O)[C@H](CCC(N)=O)NC(=O)[C@H](C)NC(=O)[C@H](CC(C)C)NC(=O)[C@H](CCC(N)=O)NC(=O)[C@H](CCC(=O)O)NC(=O)[C@H](C)NC(=O)[C@H](CCCN=C(N)N)NC(=O)[C@H](C)NC(=O)[C@H](CCCC)NC(=O)[C@H]1CC(=O)NCCC[C@H](NC(=O)[C@H](CC(C)C)NC(=O)[C@H](CC(C)C)NC(=O)[C@H](Cc2c[nH]cn2)NC(=O)[C@H](N)Cc2ccccc2)C(=O)N[C@@H](CCC(=O)O)C(=O)N[C@@H](C(C)C)C(=O)N[C@@H](CC(C)C)C(=O)N1)C(=O)N[C@@H](CCC(=O)O)C(=O)N[C@H](C(=O)N[C@H](C(=O)C(N)=O)[C@@H](C)CC)[C@@H](C)CC`, the Activity in test [1] was 0.006.
Turning to `CCCC[C@H](NC(=O)[C@@H]1CC(=O)NCCC[C@H](NC(=O)[C@H](CC(C)C)NC(=O)[C@H](CC(C)C)NC(=O)[C@H](Cc2c[nH]cn2)NC(=O)[C@H](N)Cc2ccccc2)C(=O)N[C@@H](CCC(=O)O)C(=O)N[C@@H](C(C)C)C(=O)N[C@@H](CC(C)C)C(=O)N1)C(=O)N[C@@H](C)C(=O)N[C@@H](CCCN=C(N)N)C(=O)N[C@@H](C)C(=O)N[C@@H](CCC(=O)O)C(=O)N[C@@H](CCC(N)=O)C(=O)N[C@@H](CC(C)C)C(=O)N[C@@H](C)C(=O)N[C@@H](CCC(N)=O)C(=O)N[C@@H](CCC(N)=O)C(=O)N[C@@H](C)C(=O)N[C@@H](Cc1c[nH]cn1)C(=O)N[C@@H](CO)C(=O)N[C@@H](CC(N)=O)C(=O)N[C@@H](CCCN=C(N)N)C(=O)N[C@@H](CCCCN)C(=O)N[C@@H](CC(C)C)C(=O)N[C@@H](CCCC)C(=O)N[C@@H](CCC(=O)O)C(=O)N[C@H](C(=O)N[C@H](C(=O)C(N)=O)[C@@H](C)CC)[C@@H](C)CC`, in test [1], the Activity was 0.001. In addition, the Intrinsic activity in test [2] amounted to 2.
